Results published in ChEMBL document CHEMBL1201862, “PubChem BioAssay data set” (2004).
Calls of active or inactive are those of the source.

Legend:
[1] = NIH-3T3 fibroblast cytotoxicity, dose response, cytotoxicity control, cell-based, fluorescence, Alamar Blue, secondary assay (AID 2327); assay type: functional;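 also: NIH-3T3 mouse fibroblasts cultured with fluconazole at 8 µg/mL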
[2] = fluconazole-exposed Candida albicans growth modulators – fluorescence, retest, confirmation (AID 2467); assay type: functional, cell-based
[3] = Intein inhibitors as potential Tuberculosis drugs, a cytotoxicity screen. [Related pubchem assays (depositor defined):AID2221, AID2223, AID434968, AID435010, AID449749, AID449750, AID489010]; assay type: functional
[4] = target: T1, Replicative DNA helicase DnaB (Mycobacterium tuberculosis, UniProt P9WMR3); test: DnaB intein splicing inhibitors, dose response, biochemical, cell-free fluorescence (AID 449749); assay type: functional
T1 sequence (P9WMR3 whole entry): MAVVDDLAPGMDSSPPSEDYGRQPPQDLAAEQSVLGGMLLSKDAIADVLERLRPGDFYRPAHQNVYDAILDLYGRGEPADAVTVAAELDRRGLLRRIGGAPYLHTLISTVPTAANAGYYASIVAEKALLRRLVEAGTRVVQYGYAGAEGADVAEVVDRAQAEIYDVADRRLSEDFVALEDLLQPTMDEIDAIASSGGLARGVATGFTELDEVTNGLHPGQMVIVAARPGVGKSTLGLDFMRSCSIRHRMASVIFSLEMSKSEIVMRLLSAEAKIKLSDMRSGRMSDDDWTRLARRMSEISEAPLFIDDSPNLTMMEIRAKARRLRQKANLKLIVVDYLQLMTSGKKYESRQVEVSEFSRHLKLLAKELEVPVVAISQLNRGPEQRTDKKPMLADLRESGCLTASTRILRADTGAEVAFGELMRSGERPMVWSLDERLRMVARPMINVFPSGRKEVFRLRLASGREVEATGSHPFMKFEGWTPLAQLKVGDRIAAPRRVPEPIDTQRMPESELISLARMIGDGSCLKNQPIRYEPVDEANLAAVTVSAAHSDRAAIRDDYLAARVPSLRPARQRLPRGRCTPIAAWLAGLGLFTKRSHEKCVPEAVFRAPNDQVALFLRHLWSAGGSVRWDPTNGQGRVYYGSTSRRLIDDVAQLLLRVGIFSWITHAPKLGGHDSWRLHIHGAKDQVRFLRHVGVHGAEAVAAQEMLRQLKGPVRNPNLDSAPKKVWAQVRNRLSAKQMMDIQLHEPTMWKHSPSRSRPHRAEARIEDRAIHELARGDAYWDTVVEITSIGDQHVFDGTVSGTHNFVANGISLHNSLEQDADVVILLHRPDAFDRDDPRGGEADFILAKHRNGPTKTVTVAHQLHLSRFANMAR

[5] = target: Heat shock protein HSP 90-alpha (Homo sapiens, UniProt P07900); assay type: functional, organism-based
[6] = target: T2, Protein RecA (Mycobacterium tuberculosis, UniProt P9WHJ3); test: Fluorescence Cell-Free Homogeneous Dose Retest to Identify Inhibitors of RecA-Intein Splicing Activity. [Related pubchem assays (depositor defined):AID2097, AID2223, AID489010, AID492950]; assay type: functional
T2 sequence (P9WHJ3 whole entry): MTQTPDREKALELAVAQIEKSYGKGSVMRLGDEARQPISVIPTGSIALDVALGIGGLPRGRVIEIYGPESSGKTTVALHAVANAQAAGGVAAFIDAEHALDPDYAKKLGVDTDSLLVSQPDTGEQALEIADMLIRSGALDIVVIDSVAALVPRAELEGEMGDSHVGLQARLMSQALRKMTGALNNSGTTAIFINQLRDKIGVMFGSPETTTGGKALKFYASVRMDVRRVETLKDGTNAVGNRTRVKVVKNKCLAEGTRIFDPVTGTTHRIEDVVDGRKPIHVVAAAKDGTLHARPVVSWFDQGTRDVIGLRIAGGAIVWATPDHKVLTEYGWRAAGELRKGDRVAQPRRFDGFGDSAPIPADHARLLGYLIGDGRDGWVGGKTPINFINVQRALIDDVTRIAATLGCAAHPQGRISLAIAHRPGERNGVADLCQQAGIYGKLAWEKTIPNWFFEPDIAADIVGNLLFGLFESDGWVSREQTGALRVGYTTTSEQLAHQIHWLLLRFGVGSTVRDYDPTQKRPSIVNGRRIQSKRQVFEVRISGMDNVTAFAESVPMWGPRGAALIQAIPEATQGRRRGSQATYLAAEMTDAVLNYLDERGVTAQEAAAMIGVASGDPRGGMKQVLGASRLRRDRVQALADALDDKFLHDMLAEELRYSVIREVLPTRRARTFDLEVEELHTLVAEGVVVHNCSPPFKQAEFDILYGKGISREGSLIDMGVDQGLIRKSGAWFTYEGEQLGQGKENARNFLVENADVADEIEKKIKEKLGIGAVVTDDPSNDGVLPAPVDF

[7] = reduction of Shn3 3'UTR-driven luciferase in osteoblasts – cell-based, Clone20 osteoblasts, firefly luciferase, cherry-picked, dose response (AID 624132); assay type: functional;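 also: firefly luciferase luminescence from reporter carrying the Shn3 3'UTR in osteoblasts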
[8] = loss of viability in HepG2 cells – cell-based, CellTiter-Glo, cherry-picked, cytotoxicity control for Shn3 inhibitor project, dose response (AID 624134); assay type: functional
[9] = non-specific 3'UTR reporter inhibition in Clone20-Shn3RL – cell-based, Renilla luciferase, cherry-picked, counter-screen for Shn3 inhibitor project, dose response (AID 624133); assay type: functional
[10] = target: Cytochrome P450 2C9 (Homo sapiens, UniProt P11712)
[11] = target: T3, SUMO-activating enzyme (Homo sapiens, UniProt Q9UBT2); test: blockers of UBC9-mediated SUMO conjugation – biochemical, AlphaScreen, SUMOylation inhibitor project, confirmation (AID 2018); assay type: functional
[12] = target: Large T antigen (Simian virus 40, UniProt P03070); assay type: functional, Betapolyomavirus macacae;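 also: Confirmatory-stage PubChem screen for compounds that inhibit SV40 T antigen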
[13] = target: T3, SUMO-activating enzyme; test: blockers of SAE1/SAE2–UBC9 SUMO transfer – biochemical, HTRF, uHTS, primary screen (AID 2006); assay type: protein-complex assay
[14] = target: FAD-linked sulfhydryl oxidase ALR (Homo sapiens, UniProt P55789); test: ALR-catalysed DTT oxidation blockers – biochemical, H2O2 detection, luminescence, cherry-pick, dose response (AID 493248)
[15] = target: T4, Leucine aminopeptidase (Plasmodium falciparum 3D7, UniProt Q8IL11); test: P. falciparum M17LAP inhibitors, primary screen, biochemical, fluorogenic H-Leu-NHMec substrate, 1536-well (AID 1619); assay type: functional
T4 sequence (Q8IL11 whole entry): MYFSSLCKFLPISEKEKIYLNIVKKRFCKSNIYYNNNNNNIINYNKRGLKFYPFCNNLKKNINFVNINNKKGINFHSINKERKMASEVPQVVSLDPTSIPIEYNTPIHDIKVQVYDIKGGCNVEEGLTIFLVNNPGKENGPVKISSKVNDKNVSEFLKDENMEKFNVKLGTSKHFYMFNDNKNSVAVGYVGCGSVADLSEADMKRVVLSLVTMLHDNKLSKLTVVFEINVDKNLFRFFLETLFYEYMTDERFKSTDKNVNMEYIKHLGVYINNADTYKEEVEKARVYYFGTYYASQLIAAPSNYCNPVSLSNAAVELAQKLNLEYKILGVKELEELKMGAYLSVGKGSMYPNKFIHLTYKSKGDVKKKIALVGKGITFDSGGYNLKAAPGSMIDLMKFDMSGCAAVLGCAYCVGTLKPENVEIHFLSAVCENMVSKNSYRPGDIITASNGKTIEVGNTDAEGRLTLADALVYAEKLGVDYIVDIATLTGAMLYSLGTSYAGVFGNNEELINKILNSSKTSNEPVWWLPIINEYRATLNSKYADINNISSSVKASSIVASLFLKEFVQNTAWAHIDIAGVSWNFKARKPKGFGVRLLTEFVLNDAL

[16] = target: G-protein coupled receptor 55 (Homo sapiens, UniProt Q9Y2T6); test: inhibition of LPI-stimulated GPR55 beta-arrestin translocation – imaging, U2OS, beta-arrestin-GFP, LPI agonist, primary screen (AID 2013); assay type: functional;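 also: antagonist potency measured as reduced agonist-driven arrestin aggregation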
[17] = target: Induced myeloid leukemia cell differentiation protein Mcl-1 (Homo sapiens, UniProt Q07820); assay type: functional
[18] = target: T5, Fatty acid synthase (Homo sapiens, UniProt P49327); test: inhibition of human FAS-TE enzyme activity – biochemical, endpoint fluorescence intensity, uHTS hits, dose response (AID 624327); assay type: functional;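 also: fluorescence from hydrolysis of an O-methyl fluorescein acyl ester substrate by the enzyme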
[19] = target: T5, Fatty acid synthase; test: inhibition of human FAS-TE enzyme activity – biochemical, kinetic fluorescence intensity, dose response (AID 624326); assay type: functional;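 also: rate of fluorescence rise from hydrolysis of a fluorogenic O-methyl fluorescein ester substrate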
[20] = target: T6, Caspase-6 (Homo sapiens, UniProt P55212); test: inhibition of CASP6 peptide cleavage – biochemical, VEID-R110 fluorescence, cherry-pick, dose response (AID 720632)
T6 sequence (P55212 whole entry): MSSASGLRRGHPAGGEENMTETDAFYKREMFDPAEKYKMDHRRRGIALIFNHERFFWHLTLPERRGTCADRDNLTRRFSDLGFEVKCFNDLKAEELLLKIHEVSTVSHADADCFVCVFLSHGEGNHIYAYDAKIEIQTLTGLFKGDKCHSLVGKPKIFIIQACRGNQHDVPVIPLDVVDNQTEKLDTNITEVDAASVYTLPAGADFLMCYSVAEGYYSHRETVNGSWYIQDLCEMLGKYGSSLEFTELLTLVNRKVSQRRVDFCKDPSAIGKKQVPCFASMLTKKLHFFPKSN

[21] = target: DNA dC->dU-editing enzyme APOBEC-3A (Homo sapiens, UniProt P31941); test: Dose Response confirmation of small molecule APOBEC3A DNA Deaminase Inhibitors via a fluorescence-based single-stranded DNA deaminase assay. [Related pubchem assays (depositor defined):AID493011, AID493024]; assay type: functional
[22] = target: DNA dC->dU-editing enzyme APOBEC-3G (Homo sapiens, UniProt Q9HC16); assay type: functional;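 also: Dose-response counterscreen measuring inhibition of APOBEC3G DNA deaminase activity, run while confirming APOBEC3A inhibitors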
[23] = Trypanosoma cruzi growth suppression in host cells – NIH3T3 host cells, beta-gal luminescence, confirmation (AID 2044); assay type: functional, cell-based;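 also: intracellular parasites grown in NIH/3T3 mouse fibroblasts as host cells; luminescent beta-galactosidase reporter signal from transgenic T. cruzi replicating inside host cells; inhibitors lower the luminescence signal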
[24] = NIH3T3 cell viability loss – ATP luminescence, mouse fibroblasts, counter-screen, dose response (AID 2010); assay type: functional, cell-based;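 also: cells exposed to compound for about 90 hours before reading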
[25] = tested on: INS1; test: INS-1E survival protection against cytokine death – cell-based, luminescence, retest, dose response (AID 449756); assay type: functional; conditions: Rattus norvegicus;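 also: cell death triggered by IL-1 beta plus TNF-alpha plus IFN-gamma mixture; protective hits raise ATP signal compared with cytokine alone wells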
[26] = target: T7, RNA-binding protein pos-1 (Caenorhabditis elegans, UniProt G5EF15); test: disruptors of C. elegans POS-1 RNA interaction – biochemical, fluorescence polarization, dose response (AID 1964);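 also: purified POS-1 fused to maltose binding protein made in E. coli; potency of compounds blocking POS-1 binding to fluorescent RNA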
T7 sequence (G5EF15 whole entry): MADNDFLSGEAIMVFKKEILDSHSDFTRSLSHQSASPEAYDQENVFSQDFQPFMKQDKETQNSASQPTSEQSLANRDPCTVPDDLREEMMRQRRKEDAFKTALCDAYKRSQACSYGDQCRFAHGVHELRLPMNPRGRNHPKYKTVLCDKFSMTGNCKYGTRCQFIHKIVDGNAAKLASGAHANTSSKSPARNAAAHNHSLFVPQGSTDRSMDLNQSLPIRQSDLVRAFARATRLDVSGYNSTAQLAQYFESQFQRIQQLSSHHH

[27] = target: T8, Zinc finger protein mex-5 (Caenorhabditis elegans, UniProt Q9XUB2); test: potency of MEX-5 RNA-binding blockers – biochemical, C. elegans, fluorescence polarization, dose response (AID 1960)
T8 sequence (Q9XUB2 whole entry): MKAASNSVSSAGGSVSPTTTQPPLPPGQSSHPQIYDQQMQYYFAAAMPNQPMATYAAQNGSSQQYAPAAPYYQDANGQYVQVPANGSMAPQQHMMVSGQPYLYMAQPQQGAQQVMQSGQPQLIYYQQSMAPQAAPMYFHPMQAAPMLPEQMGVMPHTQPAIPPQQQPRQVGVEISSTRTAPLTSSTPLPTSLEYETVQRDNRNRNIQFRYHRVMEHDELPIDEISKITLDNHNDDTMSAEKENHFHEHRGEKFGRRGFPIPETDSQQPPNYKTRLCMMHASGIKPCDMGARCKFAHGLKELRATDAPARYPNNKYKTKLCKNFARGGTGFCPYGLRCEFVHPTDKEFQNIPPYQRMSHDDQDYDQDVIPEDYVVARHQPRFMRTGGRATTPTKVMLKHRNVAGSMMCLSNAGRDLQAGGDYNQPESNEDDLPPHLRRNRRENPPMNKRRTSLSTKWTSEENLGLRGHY
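For CC50 in this document: cells exposed to compound for 72 hours before luminescence readout.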

Chain of DNA dC->dU-editing enzyme APOBEC-3A (P31941 whole entry): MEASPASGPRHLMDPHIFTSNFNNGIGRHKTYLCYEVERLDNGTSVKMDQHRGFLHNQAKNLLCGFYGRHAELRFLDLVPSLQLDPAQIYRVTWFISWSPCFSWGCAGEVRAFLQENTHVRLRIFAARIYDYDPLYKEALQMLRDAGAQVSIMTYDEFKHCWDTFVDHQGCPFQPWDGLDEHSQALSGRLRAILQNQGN
Chain of DNA dC->dU-editing enzyme APOBEC-3G (Q9HC16 whole entry): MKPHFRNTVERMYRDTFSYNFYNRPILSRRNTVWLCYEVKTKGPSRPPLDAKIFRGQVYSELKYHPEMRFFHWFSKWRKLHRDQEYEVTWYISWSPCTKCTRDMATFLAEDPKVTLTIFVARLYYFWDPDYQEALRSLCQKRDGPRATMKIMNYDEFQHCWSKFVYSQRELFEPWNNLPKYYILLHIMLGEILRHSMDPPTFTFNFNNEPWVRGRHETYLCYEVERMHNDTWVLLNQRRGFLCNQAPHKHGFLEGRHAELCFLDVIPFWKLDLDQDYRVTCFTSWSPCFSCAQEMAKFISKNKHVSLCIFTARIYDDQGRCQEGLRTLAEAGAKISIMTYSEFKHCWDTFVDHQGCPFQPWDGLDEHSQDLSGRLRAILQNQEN
T3 sequence (Q9UBE0 whole entry): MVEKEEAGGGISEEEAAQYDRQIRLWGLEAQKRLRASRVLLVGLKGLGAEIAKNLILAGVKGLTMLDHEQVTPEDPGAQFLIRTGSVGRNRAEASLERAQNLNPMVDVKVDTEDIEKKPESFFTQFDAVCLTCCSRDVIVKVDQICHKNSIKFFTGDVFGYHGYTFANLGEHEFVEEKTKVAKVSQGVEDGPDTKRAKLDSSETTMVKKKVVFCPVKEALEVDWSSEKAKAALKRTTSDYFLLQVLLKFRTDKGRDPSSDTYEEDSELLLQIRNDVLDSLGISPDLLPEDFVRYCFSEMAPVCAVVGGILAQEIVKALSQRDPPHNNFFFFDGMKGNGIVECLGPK
T3 sequence (Q9UBT2 whole entry): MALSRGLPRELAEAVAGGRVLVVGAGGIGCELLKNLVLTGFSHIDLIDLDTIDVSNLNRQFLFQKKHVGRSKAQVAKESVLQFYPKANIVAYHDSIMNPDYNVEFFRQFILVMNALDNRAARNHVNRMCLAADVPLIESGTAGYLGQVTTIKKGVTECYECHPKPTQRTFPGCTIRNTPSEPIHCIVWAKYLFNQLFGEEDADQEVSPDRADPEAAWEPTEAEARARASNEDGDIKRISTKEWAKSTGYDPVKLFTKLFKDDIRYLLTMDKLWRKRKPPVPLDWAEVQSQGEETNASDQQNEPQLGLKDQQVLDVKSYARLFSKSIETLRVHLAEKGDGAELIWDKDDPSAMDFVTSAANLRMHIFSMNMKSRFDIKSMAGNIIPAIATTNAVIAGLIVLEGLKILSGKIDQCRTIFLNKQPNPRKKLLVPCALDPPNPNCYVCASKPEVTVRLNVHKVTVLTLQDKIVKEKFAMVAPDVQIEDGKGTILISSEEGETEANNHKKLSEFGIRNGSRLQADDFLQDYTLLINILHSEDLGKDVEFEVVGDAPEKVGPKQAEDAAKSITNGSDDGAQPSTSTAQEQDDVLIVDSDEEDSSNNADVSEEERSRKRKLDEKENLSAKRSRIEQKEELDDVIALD
T5 sequence (P49327 whole entry): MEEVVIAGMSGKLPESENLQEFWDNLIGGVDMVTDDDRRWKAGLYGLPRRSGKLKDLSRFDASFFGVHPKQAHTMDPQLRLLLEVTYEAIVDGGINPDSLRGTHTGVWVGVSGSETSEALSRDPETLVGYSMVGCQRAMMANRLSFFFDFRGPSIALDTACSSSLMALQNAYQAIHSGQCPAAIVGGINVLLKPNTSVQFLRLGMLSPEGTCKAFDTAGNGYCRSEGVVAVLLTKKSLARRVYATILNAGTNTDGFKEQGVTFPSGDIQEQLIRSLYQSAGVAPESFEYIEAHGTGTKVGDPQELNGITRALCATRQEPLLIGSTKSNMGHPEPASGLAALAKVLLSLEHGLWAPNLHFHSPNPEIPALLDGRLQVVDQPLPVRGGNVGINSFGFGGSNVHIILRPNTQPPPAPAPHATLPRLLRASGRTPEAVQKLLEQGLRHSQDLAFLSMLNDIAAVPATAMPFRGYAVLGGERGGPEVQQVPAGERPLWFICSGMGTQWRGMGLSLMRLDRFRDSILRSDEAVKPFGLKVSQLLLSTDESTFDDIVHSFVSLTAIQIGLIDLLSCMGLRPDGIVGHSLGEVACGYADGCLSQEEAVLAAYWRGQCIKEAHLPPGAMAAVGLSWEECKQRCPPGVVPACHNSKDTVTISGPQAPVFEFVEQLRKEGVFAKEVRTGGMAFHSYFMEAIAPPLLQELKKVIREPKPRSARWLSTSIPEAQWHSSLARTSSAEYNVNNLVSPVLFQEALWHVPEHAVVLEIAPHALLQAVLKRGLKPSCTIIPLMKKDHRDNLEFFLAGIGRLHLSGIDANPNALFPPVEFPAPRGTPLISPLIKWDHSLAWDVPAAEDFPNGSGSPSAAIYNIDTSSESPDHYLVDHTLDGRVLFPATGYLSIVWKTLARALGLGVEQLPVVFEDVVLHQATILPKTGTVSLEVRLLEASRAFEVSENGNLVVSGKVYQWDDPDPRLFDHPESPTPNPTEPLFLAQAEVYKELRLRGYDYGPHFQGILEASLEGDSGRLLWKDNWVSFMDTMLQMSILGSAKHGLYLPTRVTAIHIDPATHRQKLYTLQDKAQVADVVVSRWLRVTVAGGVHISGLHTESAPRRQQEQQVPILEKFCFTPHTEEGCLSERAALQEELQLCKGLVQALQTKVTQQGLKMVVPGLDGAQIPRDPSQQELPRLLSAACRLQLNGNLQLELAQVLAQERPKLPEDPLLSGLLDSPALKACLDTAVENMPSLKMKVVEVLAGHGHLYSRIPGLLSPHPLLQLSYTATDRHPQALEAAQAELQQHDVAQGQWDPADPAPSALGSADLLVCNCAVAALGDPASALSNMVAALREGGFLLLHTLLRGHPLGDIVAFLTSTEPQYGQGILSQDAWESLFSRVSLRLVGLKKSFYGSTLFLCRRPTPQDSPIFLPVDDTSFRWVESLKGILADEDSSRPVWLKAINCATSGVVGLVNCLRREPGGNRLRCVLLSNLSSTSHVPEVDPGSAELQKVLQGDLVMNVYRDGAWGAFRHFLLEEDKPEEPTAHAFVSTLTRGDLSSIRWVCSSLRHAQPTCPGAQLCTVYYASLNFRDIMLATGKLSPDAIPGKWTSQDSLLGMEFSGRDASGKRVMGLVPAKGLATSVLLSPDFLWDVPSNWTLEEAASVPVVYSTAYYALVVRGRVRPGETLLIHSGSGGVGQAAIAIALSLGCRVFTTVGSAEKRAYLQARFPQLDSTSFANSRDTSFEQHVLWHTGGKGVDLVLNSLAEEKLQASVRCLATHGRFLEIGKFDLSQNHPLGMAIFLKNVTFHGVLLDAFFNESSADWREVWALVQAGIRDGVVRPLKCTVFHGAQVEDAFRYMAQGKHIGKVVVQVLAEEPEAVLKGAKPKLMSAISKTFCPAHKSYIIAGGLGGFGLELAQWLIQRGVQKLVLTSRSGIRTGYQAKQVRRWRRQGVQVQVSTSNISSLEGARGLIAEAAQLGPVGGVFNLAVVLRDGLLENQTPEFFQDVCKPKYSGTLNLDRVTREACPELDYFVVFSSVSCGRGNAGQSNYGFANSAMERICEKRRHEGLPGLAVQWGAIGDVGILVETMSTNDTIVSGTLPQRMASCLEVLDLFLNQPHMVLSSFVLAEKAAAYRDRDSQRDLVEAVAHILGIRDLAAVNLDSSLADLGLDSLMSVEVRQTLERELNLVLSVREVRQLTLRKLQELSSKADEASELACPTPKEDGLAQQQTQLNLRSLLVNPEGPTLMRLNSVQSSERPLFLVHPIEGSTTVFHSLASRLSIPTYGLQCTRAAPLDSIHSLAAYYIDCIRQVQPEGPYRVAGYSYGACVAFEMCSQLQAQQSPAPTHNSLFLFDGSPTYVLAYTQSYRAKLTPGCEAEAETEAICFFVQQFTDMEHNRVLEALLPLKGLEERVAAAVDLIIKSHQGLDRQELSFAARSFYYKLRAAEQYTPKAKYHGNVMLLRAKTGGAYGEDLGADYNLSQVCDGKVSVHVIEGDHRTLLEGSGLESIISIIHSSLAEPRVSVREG
Chain of Cytochrome P450 2C9 (P11712 whole entry): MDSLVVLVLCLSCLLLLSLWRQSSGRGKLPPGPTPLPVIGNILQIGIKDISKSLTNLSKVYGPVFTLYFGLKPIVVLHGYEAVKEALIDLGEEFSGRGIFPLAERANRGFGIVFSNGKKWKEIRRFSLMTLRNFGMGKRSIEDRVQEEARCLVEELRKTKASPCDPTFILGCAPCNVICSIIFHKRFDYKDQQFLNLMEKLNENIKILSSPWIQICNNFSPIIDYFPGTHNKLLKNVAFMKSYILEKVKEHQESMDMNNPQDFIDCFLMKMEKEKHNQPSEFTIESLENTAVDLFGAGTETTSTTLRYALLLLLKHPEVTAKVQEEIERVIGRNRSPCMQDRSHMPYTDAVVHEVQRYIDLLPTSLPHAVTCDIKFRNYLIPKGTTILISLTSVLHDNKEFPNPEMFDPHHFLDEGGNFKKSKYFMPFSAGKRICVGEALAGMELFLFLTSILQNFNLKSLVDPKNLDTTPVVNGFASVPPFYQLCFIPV
Chain of Induced myeloid leukemia cell differentiation protein Mcl-1 (Q07820 whole entry): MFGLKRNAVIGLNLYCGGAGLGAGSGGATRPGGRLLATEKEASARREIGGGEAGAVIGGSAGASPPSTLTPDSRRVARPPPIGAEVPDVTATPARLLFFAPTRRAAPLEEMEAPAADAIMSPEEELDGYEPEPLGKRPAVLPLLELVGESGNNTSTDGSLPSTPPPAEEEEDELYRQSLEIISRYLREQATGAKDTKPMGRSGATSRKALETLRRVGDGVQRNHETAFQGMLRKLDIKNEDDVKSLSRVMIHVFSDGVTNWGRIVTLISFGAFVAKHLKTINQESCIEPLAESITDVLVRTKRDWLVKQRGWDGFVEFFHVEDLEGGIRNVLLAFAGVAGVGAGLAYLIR

O=C(OCn1ncc(Cl)c(Cl)c1=O)c1cccc(C(F)(F)F)c1
active: EC50 [2] 0.781 µM | CC50 [3] 8.16 µM | AC50 [4] 1.44 µM | AC50 [5] 4.11 µM | EC50 [6] 0.19 µM | AC50 [7] 3.74 µM | AC50 [8] 49.7 µM | AC50 [9] 7.88 µM
inconclusive: EC50 [1] 5.31 µM | AC50 [10]

Sc1nnc(-c2ccc(Cl)cc2)n1/N=C/C=C/c1ccco1
active: IC50 [11] 7.66 µM | IC50 [12] 69.2 µM | IC50 [13] 59.1 µM | AC50 [14] 1.95 µM

C=CCOc1c(OC)cc(/C=N/Nc2cccc(C(=O)O)c2)c(Br)c1Br
5.84 µM (not active): IC50 [17]
active: IC50 [15] < 1 µM | IC50 [16] 2.92 µM | IC50 [18] 3.82 µM | IC50 [19] 3.06 µM | AC50 [20] 19.2 µM

CCn1c(C=CN(C(C)=O)c2ccccc2)[n+](CC)c2cc(Cl)ccc21
active: IC50 [21] 2.23 µM | IC50 [22] 4.45 µM

Cc1cccc(Cn2nnc3c2C(=O)c2ccccc2C3=O)c1
active: EC50 [23] 2.58 µM | CC50 [3] 11.7 µM | AC50 [4] 4.2 µM | EC50 [6] 0.446 µM | AC50 [25] 5.21 µM
> 30 µM (not active): EC50 [24]

O=C(O)c1cccc(-n2cccc2/C=C2/NC(=O)N(Cc3ccccc3F)C2=O)c1
active: IC50 [15] 53.2 µM | IC50 [21] 14.9 µM | IC50 [22] 42.9 µM
> 300 µM (not active): EC50 [26] | EC50 [27]

Cc1ccc(OCC(=O)Nc2ccc(S(=O)(=O)N(C)C3CCN(C)CC3)cc2)c(C)c1
> 60 µM (not active): EC50 [24]
active: EC50 [23] 0.32 µM | IC50 [21] 3.31 µM | IC50 [22] 6.95 µM
